From patent US6054556A, “Melanocortin receptor antagonists and agonists” (The Arizona Board of Regents on Behalf of the University of …, priority 1997, dated 2000)
“Also recorded” adds a separate entry of the source. Where a SMILES comes first, the peptide text is derived from it. Bridges are numbered along the chain shown (N, C = ends). [ ]: non-standard residue; d: D form. 2Nal = N[C@@H](Cc1ccc2ccccc2c1)C(=O)O; d2Nal = N[C@H](Cc1ccc2ccccc2c1)C(=O)O; Nle = CCCC[C@H](N)C(=O)O

Assays:
Type in all cases: cell-based
[1] = test system: frog (Rana pipiens) skin; assay: Frog skin bioassay (skin darkening, photoreflectance); details: for Frog Skin: agonist/antagonist activity: melanin dispersion vs α-MSH
Procedure: Bioassays were performed on frog (Rana pipiens) skin according to published protocols [see J. Med. Chem. 30:2126 (1987) and Gen. Comp. Endocrinol. 55:104 (1984)]. Briefly, in these assays the darkening of skin due to dispersion of melanin granules within the melanocytes in response to the melanotropin peptides according to the present invention is measured by photoreflectance methods. The agonist potency of each peptide was determined from the dose response curves comparing the skin darkening with that produced by the native hormone, α-MSH. Prolongation of the biological response was measured by continued monitoring of the melanosome dispersion for up to 3 hours following removal of the peptide in the bathing solution through washing of the skins. The antagonistic activity profile was measured by pre-incubating the skins for 1 hour in various concentrations of the antagonist. After pre-incubation, a known concentration of α-MSH was added and its melanotropic activity determined. Dose-response curves generated for α-MSH in this manner were used to determine the pA2 values (representing the -log10 of the average molar concentration of the antagonist that will reduce the response of α-MSH (agonist) from 2X units to X units) [see Br. J. Pharmacol. 2:189 (1947)].

[2] = target: T1, mMC5-R (Mus musculus, UniProt P41149); assay: cAMP-dependent pCRE/β-galactosidase reporter assay in Clonal 293 cells expressing mouse MC5-R; details: for mMC5-R: agonist/antagonist activity: cAMP/β-galactosidase
T1 construct: expressed in transfected cells
Procedure: Transduction was measured by its affect on cAMP production using the following method.
(§1) 4 μg of pCRE/β-galactosidase DNA was used for transfection of a 10 cm dish of cells. After 15 to 24 hours post-transfection, cells were split into 96-well plates with 20,000 to 30,000 cells per well, and incubated at 37° C. in a 5% CO2 incubator until 48 hours post-transfection.Cells were then stimulated with different peptides diluted in stimulation medium (Dulbecco's modified Eagle's medium containing 0.1 mg/ml bovine serum albumin and 0.1 mM isobutylmethylxanthine) for 6 hours. Agonist activity was measured by stimulating cells with various concentrations of peptide, and antagonist activity was measured by stimulating MC3 and MC4 receptor cell lines with […]. After stimulation, cells were lysed in 50 μl lysis buffer (250 mM Tris-HCl, pH 8.0, 0.1% Triton X-100), frozen and thawed, and then assayed for b-galactosidase activity.

[3] = target: T2, hMC3-R (Homo sapiens, UniProt P41968); assay: cAMP-dependent pCRE/β-galactosidase reporter assay in Clonal 293 cells expressing human MC3-R; details: for hMC3-R: agonist/antagonist activity: cAMP/β-galactosidase
T2 construct: expressed in transfected cells
Procedure: (§2) The peptides according to the present invention were assayed for agonist and antagonist activity using cloned hMC1, mMC1-R, hMC3-R, hMC4-R and mMC5-R transfected into the stable cell line Clonal 293. Transduction was measured by its affect on cAMP production using the following method.
as §1, with “Clonal 293 cell lines expressing the human MSH receptor, human MC3-R, human MC4-R, and mouse MC5-R were transfected with a pCRE/β-galactosidase construct using a CaPO4 method [see Mol. Cell. Biol. 7:2745 (1987)]. 4 μg” for “4 μg”

[4] = target: T3, hMC4-R (Homo sapiens, UniProt P32245); assay: cAMP-dependent pCRE/β-galactosidase reporter assay in Clonal 293 cells expressing human MC4-R; details: for hMC4-R: agonist/antagonist activity: cAMP/β-galactosidase
T3 construct: expressed in transfected cells
Procedure: as §2
as §1, with “Clonal 293 cell lines expressing the human MSH receptor, human MC3-R, human MC4-R, and mouse MC5-R were transfected with a pCRE/β-galactosidase construct using a CaPO4 method [see Mol. Cell. Biol. 7:2745 (1987)]. 4 μg” for “4 μg”

T1 sequence (P41149 whole entry): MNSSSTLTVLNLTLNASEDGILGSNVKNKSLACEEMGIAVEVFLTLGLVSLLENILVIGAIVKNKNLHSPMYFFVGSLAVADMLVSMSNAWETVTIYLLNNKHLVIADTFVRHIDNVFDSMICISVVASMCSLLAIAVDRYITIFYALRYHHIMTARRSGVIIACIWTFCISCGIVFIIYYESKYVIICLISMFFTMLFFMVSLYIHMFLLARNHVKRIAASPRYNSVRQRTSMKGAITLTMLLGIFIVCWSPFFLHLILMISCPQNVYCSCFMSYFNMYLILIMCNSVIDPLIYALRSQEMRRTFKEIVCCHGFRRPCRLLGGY
T2 sequence (P41968 whole entry): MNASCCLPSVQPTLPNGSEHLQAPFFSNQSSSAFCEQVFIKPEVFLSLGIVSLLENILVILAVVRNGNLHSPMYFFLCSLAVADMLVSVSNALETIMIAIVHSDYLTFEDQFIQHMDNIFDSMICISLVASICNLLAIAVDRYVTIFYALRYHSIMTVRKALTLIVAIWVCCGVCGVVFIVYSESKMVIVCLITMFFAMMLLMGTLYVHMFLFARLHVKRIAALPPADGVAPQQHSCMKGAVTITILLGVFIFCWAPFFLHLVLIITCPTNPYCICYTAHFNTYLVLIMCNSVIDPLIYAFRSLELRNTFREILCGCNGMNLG
T3 sequence (P32245 whole entry): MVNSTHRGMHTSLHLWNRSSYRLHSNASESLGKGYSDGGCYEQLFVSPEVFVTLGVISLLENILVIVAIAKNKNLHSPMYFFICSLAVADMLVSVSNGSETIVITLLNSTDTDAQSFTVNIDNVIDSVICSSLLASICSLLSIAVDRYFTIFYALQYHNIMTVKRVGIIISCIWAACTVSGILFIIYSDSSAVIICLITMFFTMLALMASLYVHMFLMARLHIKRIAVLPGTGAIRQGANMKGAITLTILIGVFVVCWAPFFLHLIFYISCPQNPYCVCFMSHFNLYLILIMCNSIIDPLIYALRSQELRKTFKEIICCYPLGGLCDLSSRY

| mMC5-R: potency range [2] | mMC5-R: agonist/antagonist activity [2] | hMC3-R: potency range [3] | hMC3-R: agonist/antagonist activity [3] | hMC4-R: potency range [4] | hMC4-R: agonist/antagonist activity [4] | Compound | Frog Skin: agonist/antagonist activity [1] | Frog Skin: reversibility of antagonism [1] |
| --- | --- | --- | --- | --- | --- | --- | --- | --- |
| – | – | – | – | – | – | CCCC[C@H](NC(C)=O)C(=O)N[C@H]1CC(=O)NCCCC[C@@H](C(N)=O)NC(=O)[C@H](Cc2ccc3ccccc3c2)NC(=O)[C@H](CCCNC(=N)N)NC(=O)[C@@H](Cc2ccccc2)NC(=O)[C@H](Cc2c[nH]c3ccccc23)NC1=O [Compound 10, Ac-Nle-c[Asp-Trp-D-Phe-Arg-Nal(2')-Lys]-NH2] (Ac-[Nle]DW[dF]R[2Nal]K-NH2; lactam 2-7) | potent agonist; also recorded: Full Agonist | – |
| – | – | – | – | – | – | CCCC[C@H](NC(C)=O)C(=O)N[C@H]1CC(=O)NCCCC[C@@H](C(N)=O)NC(=O)[C@H](Cc2ccc3ccccc3c2)NC(=O)[C@H](CCCNC(=N)N)NC(=O)[C@@H](Cc2ccc3ccccc3c2)NC(=O)[C@H](Cc2c[nH]cn2)NC1=O [Compound 11, Ac-Nle-c[Asp-His-D-Nal(2')-Arg-Nal(2')-Lys]-NH2] | Antagonist -- Partial | – |
| pM range | Antagonist | nM range | Antagonist | nM range | Antagonist | Ac-Nle-c[Asp-His(3-Me)-D-Nal(2')-Arg-Trp-Lys]-NH2 [Compound 3] | Antagonist | Irreversible |
| – | – | – | – | – | – | CCCC[C@H](NC(C)=O)C(=O)N[C@H]1CC(=O)NCCCC[C@@H](C(N)=O)NC(=O)[C@H](Cc2ccc3ccccc3c2)NC(=O)[C@H](CCCNC(=N)N)NC(=O)[C@@H](Cc2ccc3ccccc3c2)NC(=O)[C@H](Cc2c[nH]c3ccccc23)NC1=O [Compound 1, Ac-Nle-c[Asp-Trp-D-Nal(2')-Arg-Nal(2')-Lys]-NH2] (Ac-[Nle]DW[d2Nal]R[2Nal]K-NH2; lactam 2-7) | Antagonist | Irreversible |
| pM range | Antagonist | nM range | Antagonist | nM range | Antagonist | Ac-Nle-c[Asp-His(3-Me)-D-Nal(2')-Arg-Nal(2')-Lys]-NH2 [Compound 6] | Antagonist | Irreversible |
| pM range | Antagonist | nM range | Antagonist | nM range | Antagonist | Ac-Nle-c[Asp-His(1-Me)-D-Nal(2')-Arg-Nal(2')-Lys]-NH2 [Compound 5] | Antagonist | Irreversible |
| – | – | – | – | – | – | CCCC[C@H](NC(C)=O)C(=O)N[C@H]1CC(=O)NCCCC[C@@H](C(N)=O)NC(=O)[C@H](Cc2c[nH]c3ccccc23)NC(=O)[C@H](Cc2ccc3ccccc3c2)NC(=O)[C@@H](Cc2ccccc2)NC(=O)[C@H](Cc2c[nH]cn2)NC1=O [Compound 15, Ac-Nle-c[Asp-His-D-Phe-Nal(2')-Trp-Lys]-NH2] | Agonism | – |
| – | – | – | – | – | – | CCCC[C@H](NC(C)=O)C(=O)N[C@H]1CC(=O)NCCCC[C@@H](C(N)=O)NC(=O)[C@@H](Cc2ccc3ccccc3c2)NC(=O)[C@H](CCCNC(=N)N)NC(=O)[C@@H](Cc2ccc3ccccc3c2)NC(=O)[C@H](Cc2c[nH]cn2)NC1=O [Compound 16, Ac-Nle-c[Asp-His-D-Nal(2')-Arg-D-Nal(2')-Lys]-NH2] | Agonism | – |
| – | – | – | – | – | – | CCCC[C@H](NC(C)=O)C(=O)N[C@H]1CC(=O)NCCCC[C@@H](C(N)=O)NC(=O)[C@H](Cc2c[nH]c3ccccc23)NC(=O)[C@H](CCCC)NC(=O)[C@@H](Cc2ccc3ccccc3c2)NC(=O)[C@H](Cc2c[nH]cn2)NC1=O [Compound 13, Ac-Nle-c[Asp-His-D-Nal(2')-Nle-Trp-Lys]-NH2] | Agonist | – |
| – | – | – | – | – | – | CCCC[C@H](NC(C)=O)C(=O)N[C@H]1CC(=O)NCCCC[C@@H](C(N)=O)NC(=O)[C@H](Cc2c[nH]c3ccccc23)NC(=O)[C@H](CCCC)NC(=O)[C@@H](Cc2ccc3ccccc3c2)NC(=O)[C@H](Cc2c[nH]c3ccccc23)NC1=O [Compound 14, Ac-Nle-c[Asp-Trp-D-Nal(2')-Nle-Trp-Lys]-NH2] (Ac-[Nle]DW[d2Nal][Nle]WK-NH2; lactam 2-7) | Antagonist | – |
| pM range | Antagonist | nM range | Antagonist | nM range | Antagonist | Ac-Nle-c[Asp-His(1-Me)-D-Nal(2')-Arg-Trp-Lys]-NH2 [Compound 2] | Antagonist | Irreversible |
